Read-outs that look alike come from different tables or passages of the source. Numbered stars: 1 amine (or outer) side, 2 acyl side, 3 side chain; on linkers, the order of the positions; unused ones are H or OH. Bridge positions count the residues as written; N and C are the ends. Square brackets hold non-standard residues; d marks the D form. Peptide text beside a SMILES is read from it. I, II: the chains in the order shown. Actinocin(9to1) = Cc1c2oc3c(C)ccc(C(=O)[*:1])c3nc-2c(C(=O)[*:2])c(N)c1=O; NMeV = CN[C@H](C(=O)O)C(C)C; Sar = CNCC(=O)O
Tests used:
Type in all cases: cell-based, Escherichia coli
E. coli MG1655 = system: E. coli MG1655; set-up: unit not given here
Protocol: (§1) The screening strain, DR1234, was established after all desired drug-resistant genes listed in Table 5 had been delivered into the parent E. coli strain, MG1655, by methods described above. Its level of drug resistance was analyzed by the standard minimum inhibitory concentration (MIC) assay in MHB liquid medium (Chantot, et al., 1986, “Antibacterial activity of roxithromycin: a laboratory evaluation,” J. Antibiot, 39(5):660-8) and the result was summarized in Table 7.
(§2) The level of drug resistance of CM166 was estimated by MIC assay carried out in MHB liquid medium and the results were summarized in Table 9. CM166 is resistant to antibacterial agents whose resistant genes have been incorporated into the strain, but not to other antibacterial drugs whose resistant genes are not incorporated.
(§3) The level of drug-resistance of screening strain DR1212 was analyzed by standard MIC assay in MHB liquid medium and the result was summarized in Table 11. Similar to screening strains, DR1234 and CM166, DR1212 is also resistant to drugs whose resistant genes have been introduced.
(§4) The level of drug resistance of these screening strains (both intermediates and finals) was evaluated by standard MIC assay in MHB liquid medium and the result of Strain CM242 is summarized in Table 12.
(§5) The level of drug resistance of screening strains CM400 and CM435 was evaluated by standard MIC assay in MHB liquid medium and the results are summarized in Table 13. According to the MIC results, CM435 is hypersensitive to Bleomycin, Daunorucibin, Coumermycin A1 and Erythromycin. Screening strain CM435 and others, which are hypersensitive to certain types of antimicrobial agents, are advantageous in detecting bioactive compounds with low concentration in the screening system.

[1] = system: E. coli screening strain CM242; set-up: unit not given here
Protocol: as §4

[2] = system: E. coli screening strain DR1212; set-up: unit not given here
Protocol: as §3

[3] = system: E. coli screening strain CM166; set-up: unit not given here
Source text: as §2

[4] = system: E. coli screening strain CM435; set-up: Minimal inhibitory concentrations (MIC90) CM435: unit not given here
[5] = system: E. coli screening strain DR1234; set-up: unit not given here
Protocol: as §1

[6] = system: lacZ reporter gene of the screening strains (CM191, CM242); experiment: S-Gal staining assay on solid medium; conditions: for lacZ reporter gene expression (S-Gal, blue-colored rings): screening strains on solid medium, drug-impregnated disks, PETG to suppress background
Source text: The screening strains' responses to DNA damaging agents were further confirmed by S-Gal staining assay. When mitomycin C and streptonigrin (both were well-known DNA damaging drugs) and S-Gal, the indicator, were applied to the screening strains growing on solid medium, blue-colored rings were visible around colonies in drug-impregnated disks. […] Actinomycin D was an exception. CM242 was not sensitive to this drug, although it disrupts DNA structure. PETG (2-phenyethyl B-D-thiogalactoside, Sigma, St Louis Mo.), was used in this experiment to suppress unspecific background activity.

[7] = system: E. coli screening strain CM400; set-up: unit not given here
Protocol: as §5

[8] = system: BW25113 strain containing drug-resistant genes inserted into the bioA locus; experiment: drug resistance characterization of strain with Tn7 cassette in bioA locus; conditions: for resistance conferred: streptothricin at 5 ug/ml, spectinomycin at 100 ug/ml; for resistance of strains having the promoter substitute: sat promoter replaced by Ptrc
Source text: Therefore, a functional copy was introduced by homologous recombination as described hereafter. The drug-resistant gene of interest was synthesized in vitro using PCR with oligonucleotide primers that contained homologous sequences to the target genes and an additional ˜50 by homologous to a particular chromosomal site of the recipient strain. For instance, to insert the Tn7-associated resistance gene cassette dhfrI-sat-aadA into the bioA gene locus of the recipient strain, the primers listed in Table 6 were used. The capitalized portions of these primers hybridized to Tn7 template DNA upstream and downstream of the resistance gene cassette and allowed PCR amplification of the target fragment (Roche (Mannheim, Germany) Long Template PCR System). The ˜50 by additional sequence of these oligonucleotides (low case) afforded regions of homology with the chromosomal target site of the recipient, in this instance, the bioA gene locus (Table 6). The PCR product of the above reaction was introduced into a specialized strain, BW25113 (obtained from the E. coli Genetic Stock Center, strain # 7739) by standard electroporation following the manufacturer's instruction of BioRad (Hercules, Calif.) Gene Pulser, model #1652076, for standard electroporation of E. coli. Double-crossover homologous recombination, mediated by the bacteriophage lambda Red recombinase present in the strains pKD46 [#7630], pKD78 [#7989] or pKD119 [#7990], occurred between the “bioA” locus of the recipient strain and the PCR products via their homologous regions designed in the PCR primers as described above, resulting in the insertion of the drug resistance cassette into the bioA locus of the chromosome (FIG. 3, item 315). […] Once verified by drug resistance characterization and diagnostic PCR assay (see above), the drug resistance-encoding locus from the BW25113/pKD46 strain was introduced into the same locus of the recipient screening strain by standard P1 transduction as described above, also see FIG. 3, item 310.
To increase the gene expression level, the T7 promoter was used to replace the weak promoter of sat gene.

Molecule	Minimal inhibitory concentrations (MIC90) MG1655 (E. coli MG1655; Table 7, MHB medium)	Minimal inhibitory concentrations (MIC90) MG1655 (E. coli MG1655; Table 9, MHB medium)	Minimal inhibitory concentrations (MIC90) MG1655 (E. coli MG1655; Table 11, MHB medium)	Minimal inhibitory concentrations (MIC90) MG1655 (E. coli MG1655; Table 13, MHB medium)	Minimal inhibitory concentrations (MIC90) MG1655 (E. coli MG1655; second Table 12, MHB medium)	Minimal inhibitory concentrations (MIC90) CM242 ([1]; second Table 12, MHB medium)	Minimal inhibitory concentrations (MIC90) DR1212 ([2]; Table 11, MHB medium)	Minimal inhibitory concentrations (MIC90) CM166 ([3]; Table 9, MHB medium)	Minimal inhibitory concentrations (MIC90) CM435 ([4]; Table 13, MHB medium)	Minimal inhibitory concentrations (MIC90) DR1234 ([5]; Table 7, MHB medium)	Minimal inhibitory concentrations (MIC90) CM400 ([7]; Table 13, MHB medium)	other results
Cc1c2oc3c(C)ccc(C(=O)N[C@@H]4C(=O)N[C@H](C(C)C)C(=O)N5CCC[C@H]5C(=O)N(C)CC(=O)N(C)[C@@H](C(C)C)C(=O)O[C@@H]4C)c3nc-2c(C(=O)N[C@@H]2C(=O)N[C@H](C(C)C)C(=O)N3CCC[C@H]3C(=O)N(C)CC(=O)N(C)[C@@H](C(C)C)C(=O)O[C@@H]2C)c(N)c1=O [Actinomycin D] (I: T[dV]P[Sar][NMeV] / II: T[dV]P[Sar][NMeV]; ester I:1-I:C, II:1-II:C; linker I:N-II:N via Actinocin(9to1))	200	200	200	256	200	200	50.0	50	256	100	256	sensitivity of CM242 reporter to the drug ([6]; CM242, S-Gal staining): not sensitive
CCn1cc(C(=O)O)c(=O)c2ccc(C)nc21 [Nalidixic Acid]	6.3	6.3	6.3	8	6.3	>400	50	800	>64	400	>64	lacZ reporter gene expression (S-Gal, blue-colored rings) [6]: not expressed
CN[C@@H]1[C@H](O)[C@H](NC)[C@H]2O[C@@]3(O)C(=O)C[C@@H](C)O[C@H]3O[C@@H]2[C@H]1O [Spectinomycin]	6.3-12.5	6.3-12.5	6.3-12.5	16	6.3-12.5	>400	>400	>400	>64	>400	>64	resistance conferred ([8]; native sat promoter): not; resistance of strains having the promoter substitute [8]: resistant
COc1cc(Cc2cnc(N)nc2N)cc(OC)c1OC [Trimethoprim]	–	–	–	–	–	–	–	–	–	–	–	Minimal inhibitory concentrations (MIC90) CM242 [1]: >400; Minimal inhibitory concentrations (MIC90) DR1212 [2]: >400; Minimal inhibitory concentrations (MIC90) CM166 [3]: >400; resistance conferred, concentration ([8]; BW25113 with Tn7 cassette in bioA, native sat promoter): at least 10 ug/ml; Minimal inhibitory concentrations (MIC90) CM435 [4]: >64; Minimal inhibitory concentrations (MIC90) DR1234 [5]: >400; lacZ reporter gene expression (S-Gal, blue-colored rings) [6]: not expressed; Minimal inhibitory concentrations (MIC90) CM400 [7]: >64
Bleomycin	≦0.2-0.4	≦0.2-0.4	≦0.2-0.4	2	≦0.2-0.4	200	≦0.4	400	8	0.8	>64	sensitivity of CM435 according to the MIC results ([4]; MHB liquid medium): hypersensitive
Gentamicin	0.8	0.8	0.8	1	0.8	100	200	>400	>64	400	>64	–
Neomycin	0.8	0.8	0.8	2	0.8	50	25	25	8	100	16	–
Streptothricin	0.4-1.6	0.4-1.6	0.4-1.6	2	0.4-1.6	>400	200	400	64	400	>64	resistance conferred ([8]; native sat promoter): not; resistance of strains having the promoter substitute [8]: resistant

— US20100311107A1, “Ultra-High Throughput Screening of Natural Products” (priority 2004, published 2010)
